Patent publication US20100104546A1, “MODULATORS OF ANTIGEN-DEPENDENT T CELL PROLIFERATION” (CHILDREN, YOUTH AND WOMEN'S HEALTH SERVICE, priority 2007, published 2010)

Assays:
splenocytes = test: Tetanus toxoid (TT)-induced ex vivo lymphocyte proliferation after administration to TT-immunized mice; details: 10, 40 and 80 mg/kg i.p. in mouse serum, spleens removed 2 h later
Method: Mice were immunized with SRBC. After 5 days they were given β-thia-21:3n-3 at the indicated doses i.p. After 2 hours the spleens were removed and processed into single cell suppressions. These were then cultured in the presence (□), or absence of (▪) of SRBC to assess the proliferation. The results are expressed as mean±SEM of 3 experiments. (B) Effect of β-oxa-21:3n-3 on tetanus toxoid (TT)-induced ex vivo lymphocyte responses. Mice were immunized with TT subcutaneously and after 7 days were given β-oxa-21:3n-3 in mouse serum, intraperitoneally. Two hours later the spleen removed, single cell suspension prepared and examined for lymphoproliferation responses to TT in 5 day cultures. The results are expressed as mean±SEM of 3 experiments.
6-7 weeks old Balb/c mice were injected subcutaneously with 100 μl of 10% sheep red blood cells (IMVS, Inc., Adelaide, Australia) After 5 days 100 ul of β-oxa-21:3n-3 at indicated amounts were injected intraperitoneally, intravenously or gavaged orally. […] Cells were washed with RPMI-1640 containing 10% fetal bovine serum, 10 mM Hepes, antibiotics and glutamine (RPMI-10) and counted using an automated Cell-Dyne 3500R (Abbott, Inc. MA) instrument. […] Cells were harvested and thymidine incorporation was determined using a beta scintillation counter. […]

Human PBMC = test: Human lymphocyte proliferation assay, antigen (tetanus toxoid)-induced; type: cell-based
Method: Peripheral blood mononuclear cells were purified from the blood of normal volunteers using hypagn-ficoll density gradient separation. In the assay 100 μl of PBM (treated or untreated) at a concentration of 2×10^6/ml were stimulated by the addition of 100 μl of PHA (μg/ml) or […] 2 μg/ml TT in microtitre plates. The cultures contained 5% human blood group AB serum. The cells were incubated at 37° C. in 5% CO2-air and high humidity for 72 h or 5 days (for TT). The cultures were pulsed with 1 μl of 3H-TdR 6 h prior to harvest. The amount of radioactivity incorporated was determined to assess the degree of lymphoproliferation.
To attempt to resolve this discrepancy, we examined the sensitivity of the antigen-induced (tetanus toxoid) human lymphocyte response in vitro, under the same conditions as those in which the PHA-induced response were inhibited by β-oxa21:3n-3. Human PBMC which were known to show lymphoproliferation in response to TT were pretreated with a range of concentrations of β-oxa21:3n-3 and then stimulated with TT. Proliferation was quantitated after […] of incubation of cultures. […] Using purified human T cells which were stimulated with PHA-PMA we were able to ascertain that when β-oxa21:3n-3 was added to cells the stimulated cells contained 30 fold more β-oxa-21:3n-3 than resting T cells (FIG. 5B).

[1] = test system: Th1, Th2 and macrophage-related cytokines; test: Ex vivo cytokine production by antigen (SRBC)-stimulated splenocytes; type: in vivo, mice; details: splenocytes cultured 3 days with SRBC, IP dosing
[2] = test system: splenic T cells and MHC class II cells; test: Co-culture of enriched splenic T cells and MHC class II cells, SRBC-induced proliferation; type: in vivo, mice; details: 80 mg/kg IP, 3 days
Method: (A) β-oxa-21:3n-3 (80 mg/kg) or vehicle was injected once intraperitoneally to 5 days SRBC-sensitized mice. After the indicated time period spleens were removed and cell suspensions were incubated in the presence or absence of SRBC for 3 days. Thymidine incorporation for final 16 hours of culture was determined. Percent inhibition of proliferation by β-oxa-21:3n-3 compared to vehicle injected animals are depicted against duration of exposure. (B) β-oxa-21:3n-3 (80 mg/kg) or vehicle was injected once intraperitoneally to 5 days SRBC-sensitized mice. After two hours spleens were removed and T cell and MHC II positive cells were enriched using MACS magnetic beads. As indicated, vehicle and β-oxa-21:3n-3 injected animal's enriched cells were then co-cultured in the presence or absence of SRBC for 3 days. Thymidine incorporation for final 16 h of culture was determined. Splenocytes proliferation is plotted versus the type of co-cultured cells.
In co-culture experiments negative selection purification systems were utilized to ensure isolation of untouched cells to avoid side effects on cell viability and activity. […] For accuracy in cell counts and cell viability, the enriched cells were also inspected by hemocytometer and then counted using Cell-Dyne 3500R (ABBOTT, Inc. MA) and then co-cultured. […]

[3] = test system: delayed-type hypersensitivity to SRBC antigen; details: intraperitoneal administration, mouse hind paws; cited from earlier work

## CC/C=C\C/C=C\C/C=C\CCCCCCCCOCC(=O)O [β-oxa-21:3n-3]
splenocytes
  lymphoproliferation in response to TT: capable of inhibiting the response
Human PBMC; TT versus PHA IC50
  sensitivity of antigen-induced response relative to mitogenic response: 15 fold
Human PBMC; tetanus toxoid-stimulated human PBMC, in vitro, read-out: IC50 for the inhibition of the antigen-induced response
  IC50: 2000 nM
[1]
  antigen-induced macrophage cytokine levels (MCP-1, KC, IL-12): no significant effects
  antigen-stimulated Th1 cytokines (IL-2, IL-6, IFNγ and TNFα): concentration-dependent reduction
  antigen-stimulated Th2 cytokines (IL-4, IL-5, IL-10 and IL-13): concentration-dependent reduction
[2]
  splenocyte proliferation, MHC class II cells from treated animals co-cultured with T cells from either treated or vehicle animals: no suppression
  splenocyte proliferation, T cells from treated animals co-cultured with MHC class II cells from treated or vehicle animals: suppressed
[3]
  delayed-type hypersensitivity to SRBC antigen: inhibition
